Test: xn = mol fraction of the nth substance listed
Conditions: Liquid, Vibrating tube method

CC(C)=O [acetone] + CCCCCCC
Conditions	mass density [kg/m3]
407.24 K, 19810 kPa, x1 = 0.7024	645.07
407.24 K, 34830 kPa, x1 = 0.7024	668.11
407.24 K, 39830 kPa, x1 = 0.7024	674.52
407.24 K, 44820 kPa, x1 = 0.7024	680.48
407.24 K, 49810 kPa, x1 = 0.7024	686.06
407.24 K, 54890 kPa, x1 = 0.7024	691.39
407.24 K, 59890 kPa, x1 = 0.7024	696.35
407.24 K, 64860 kPa, x1 = 0.7024	701.02
407.24 K, 69850 kPa, x1 = 0.7024	705.48
407.24 K, 74830 kPa, x1 = 0.7024	709.73
407.24 K, 79820 kPa, x1 = 0.7024	713.81
407.24 K, 84800 kPa, x1 = 0.7024	717.74
407.24 K, 94760 kPa, x1 = 0.7024	725.11
407.24 K, 99830 kPa, x1 = 0.7024	728.64
407.24 K, 119800 kPa, x1 = 0.7024	741.56
407.25 K, 89790 kPa, x1 = 0.7024	721.47
407.25 K, 104820 kPa, x1 = 0.7024	732.04
407.25 K, 109820 kPa, x1 = 0.7024	735.31
407.25 K, 114820 kPa, x1 = 0.7024	738.47
407.25 K, 124810 kPa, x1 = 0.7024	744.56
407.25 K, 129820 kPa, x1 = 0.7024	747.45
417.16 K, 1870 kPa, x1 = 0.611	581.34
417.16 K, 4870 kPa, x1 = 0.611	591.69
417.16 K, 9860 kPa, x1 = 0.611	605.85
417.16 K, 14870 kPa, x1 = 0.611	617.52
417.16 K, 19870 kPa, x1 = 0.611	627.57
417.16 K, 29860 kPa, x1 = 0.611	644.4
417.16 K, 34860 kPa, x1 = 0.611	651.63
417.16 K, 44870 kPa, x1 = 0.611	664.46
417.16 K, 49860 kPa, x1 = 0.611	670.17
417.16 K, 54850 kPa, x1 = 0.611	675.54
417.16 K, 59830 kPa, x1 = 0.611	680.59
417.16 K, 64940 kPa, x1 = 0.611	685.5
417.16 K, 69910 kPa, x1 = 0.611	690.02
417.16 K, 74900 kPa, x1 = 0.611	694.35
417.16 K, 79880 kPa, x1 = 0.611	698.49
417.16 K, 84870 kPa, x1 = 0.611	702.46
417.16 K, 89850 kPa, x1 = 0.611	706.26
417.16 K, 94840 kPa, x1 = 0.611	709.93
417.16 K, 99820 kPa, x1 = 0.611	713.43
417.16 K, 119850 kPa, x1 = 0.611	726.48
417.17 K, 1870 kPa, x1 = 0.492	575.55
417.17 K, 4860 kPa, x1 = 0.492	585.56
417.17 K, 9850 kPa, x1 = 0.492	599.32
417.17 K, 24840 kPa, x1 = 0.611	636.42
417.17 K, 39880 kPa, x1 = 0.611	658.3
417.17 K, 44850 kPa, x1 = 0.492	656.44
417.17 K, 49850 kPa, x1 = 0.492	662.04
417.17 K, 54840 kPa, x1 = 0.492	667.29
417.17 K, 59840 kPa, x1 = 0.492	672.26
417.17 K, 104790 kPa, x1 = 0.611	716.82
417.17 K, 104800 kPa, x1 = 0.492	707.7
417.17 K, 109770 kPa, x1 = 0.492	710.89
417.17 K, 109780 kPa, x1 = 0.611	720.13
417.17 K, 114870 kPa, x1 = 0.611	723.4
417.17 K, 124850 kPa, x1 = 0.611	729.46
417.17 K, 129850 kPa, x1 = 0.611	732.41
417.18 K, 1840 kPa, x1 = 0.801	597.33
417.18 K, 4870 kPa, x1 = 0.801	607.96
417.18 K, 14870 kPa, x1 = 0.492	610.71
417.18 K, 19870 kPa, x1 = 0.492	620.5
417.18 K, 24830 kPa, x1 = 0.492	629.07
417.18 K, 29860 kPa, x1 = 0.492	636.88
417.18 K, 34860 kPa, x1 = 0.492	643.95
417.18 K, 39860 kPa, x1 = 0.492	650.43
417.18 K, 64820 kPa, x1 = 0.492	676.9
417.18 K, 69910 kPa, x1 = 0.492	681.45
417.18 K, 74890 kPa, x1 = 0.492	685.69
417.18 K, 79880 kPa, x1 = 0.492	689.75
417.18 K, 84870 kPa, x1 = 0.492	693.62
417.18 K, 89860 kPa, x1 = 0.492	697.34
417.18 K, 94830 kPa, x1 = 0.492	700.9
417.18 K, 99820 kPa, x1 = 0.492	704.36
417.18 K, 114850 kPa, x1 = 0.492	714.07
417.18 K, 119830 kPa, x1 = 0.492	717.08
417.18 K, 124850 kPa, x1 = 0.492	720.01
417.18 K, 129840 kPa, x1 = 0.492	722.86
417.19 K, 2070 kPa, x1 = 0.4	611.4
417.19 K, 2070 kPa, x1 = 0.8992	611.4
417.19 K, 5030 kPa, x1 = 0.4	621.55
417.19 K, 5030 kPa, x1 = 0.8992	621.55
417.19 K, 9870 kPa, x1 = 0.801	622.44
417.19 K, 10010 kPa, x1 = 0.4	635.78
417.19 K, 10010 kPa, x1 = 0.8992	635.78
417.19 K, 14860 kPa, x1 = 0.801	634.41
417.19 K, 15000 kPa, x1 = 0.4	647.66
417.19 K, 15000 kPa, x1 = 0.8992	647.66
417.19 K, 19860 kPa, x1 = 0.801	644.76
417.19 K, 19970 kPa, x1 = 0.4	657.99
417.19 K, 19970 kPa, x1 = 0.8992	657.99
417.19 K, 24870 kPa, x1 = 0.801	653.93
417.19 K, 24970 kPa, x1 = 0.4	667.12
417.19 K, 24970 kPa, x1 = 0.8992	667.12
417.19 K, 29860 kPa, x1 = 0.801	662.11
417.19 K, 29960 kPa, x1 = 0.4	675.37
417.19 K, 29960 kPa, x1 = 0.8992	675.37
417.19 K, 34850 kPa, x1 = 0.801	669.57
417.19 K, 34950 kPa, x1 = 0.4	682.9
417.19 K, 34950 kPa, x1 = 0.8992	682.9
417.19 K, 39860 kPa, x1 = 0.801	676.46
417.19 K, 39930 kPa, x1 = 0.4	689.8
417.19 K, 39930 kPa, x1 = 0.8992	689.8
417.19 K, 44860 kPa, x1 = 0.801	682.8
417.19 K, 44890 kPa, x1 = 0.7024	672.51
417.19 K, 49870 kPa, x1 = 0.801	688.76
417.19 K, 49890 kPa, x1 = 0.4	702.22
417.19 K, 49890 kPa, x1 = 0.7024	678.35
417.19 K, 49890 kPa, x1 = 0.8992	702.22
417.19 K, 54860 kPa, x1 = 0.801	694.3
417.19 K, 54870 kPa, x1 = 0.4	707.85
417.19 K, 54870 kPa, x1 = 0.8992	707.85
417.19 K, 54880 kPa, x1 = 0.7024	683.78
417.19 K, 59860 kPa, x1 = 0.7024	688.95
417.19 K, 59870 kPa, x1 = 0.801	699.57
417.19 K, 64830 kPa, x1 = 0.801	704.51
417.19 K, 69830 kPa, x1 = 0.801	709.22
417.19 K, 74920 kPa, x1 = 0.801	713.82
417.19 K, 79790 kPa, x1 = 0.7024	707.06
417.19 K, 79800 kPa, x1 = 0.4	732.02
417.19 K, 79800 kPa, x1 = 0.8992	732.02
417.19 K, 79910 kPa, x1 = 0.801	718.11
417.19 K, 84890 kPa, x1 = 0.801	722.24
417.19 K, 89750 kPa, x1 = 0.4	740.27
417.19 K, 89750 kPa, x1 = 0.8992	740.27
417.19 K, 94870 kPa, x1 = 0.801	730.03
417.19 K, 104800 kPa, x1 = 0.801	737.2
417.19 K, 114770 kPa, x1 = 0.801	743.97
417.19 K, 119800 kPa, x1 = 0.7024	735.65
417.19 K, 119830 kPa, x1 = 0.801	747.24
417.19 K, 124820 kPa, x1 = 0.7024	738.72
417.19 K, 124830 kPa, x1 = 0.801	750.39
417.19 K, 129810 kPa, x1 = 0.7024	741.7
417.19 K, 129840 kPa, x1 = 0.801	753.43
417.2 K, 1810 kPa, x1 = 0.7024	587.77
417.2 K, 4810 kPa, x1 = 0.7024	598.33
417.2 K, 9830 kPa, x1 = 0.7024	612.79
417.2 K, 14820 kPa, x1 = 0.7024	624.66
417.2 K, 19830 kPa, x1 = 0.7024	634.93
417.2 K, 24810 kPa, x1 = 0.7024	643.93
417.2 K, 29810 kPa, x1 = 0.7024	652.02
417.2 K, 34810 kPa, x1 = 0.7024	659.38
417.2 K, 39820 kPa, x1 = 0.7024	666.17
417.2 K, 44910 kPa, x1 = 0.4	696.21
417.2 K, 44910 kPa, x1 = 0.8992	696.21
417.2 K, 59870 kPa, x1 = 0.4	713.19
417.2 K, 59870 kPa, x1 = 0.8992	713.19
417.2 K, 64850 kPa, x1 = 0.4	718.24
417.2 K, 64850 kPa, x1 = 0.7024	693.8
417.2 K, 64850 kPa, x1 = 0.8992	718.24
417.2 K, 69820 kPa, x1 = 0.4	723.05
417.2 K, 69820 kPa, x1 = 0.8992	723.05
417.2 K, 69830 kPa, x1 = 0.7024	698.42
417.2 K, 74810 kPa, x1 = 0.4	727.63
417.2 K, 74810 kPa, x1 = 0.8992	727.63
417.2 K, 74820 kPa, x1 = 0.7024	702.83
417.2 K, 84780 kPa, x1 = 0.4	736.22
417.2 K, 84780 kPa, x1 = 0.7024	711.1
417.2 K, 84780 kPa, x1 = 0.8992	736.22
417.2 K, 89760 kPa, x1 = 0.7024	714.98
417.2 K, 89890 kPa, x1 = 0.801	726.21
417.2 K, 94720 kPa, x1 = 0.4	744.15
417.2 K, 94720 kPa, x1 = 0.8992	744.15
417.2 K, 94740 kPa, x1 = 0.7024	718.71
417.2 K, 99690 kPa, x1 = 0.4	747.91
417.2 K, 99690 kPa, x1 = 0.8992	747.91
417.2 K, 99840 kPa, x1 = 0.7024	722.39
417.2 K, 99840 kPa, x1 = 0.801	733.67
417.2 K, 104650 kPa, x1 = 0.4	751.51
417.2 K, 104650 kPa, x1 = 0.8992	751.51
417.2 K, 104810 kPa, x1 = 0.7024	725.87
417.2 K, 109620 kPa, x1 = 0.4	755.03
417.2 K, 109620 kPa, x1 = 0.8992	755.03
417.2 K, 109800 kPa, x1 = 0.801	740.64
417.2 K, 109810 kPa, x1 = 0.7024	729.22
417.2 K, 114590 kPa, x1 = 0.4	758.45
417.2 K, 114590 kPa, x1 = 0.8992	758.45
417.2 K, 114820 kPa, x1 = 0.7024	732.49
417.2 K, 119550 kPa, x1 = 0.4	761.72
417.2 K, 119550 kPa, x1 = 0.8992	761.72
417.2 K, 124810 kPa, x1 = 0.4	765.12
417.2 K, 124810 kPa, x1 = 0.8992	765.12
417.2 K, 129820 kPa, x1 = 0.4	768.24
417.2 K, 129820 kPa, x1 = 0.8992	768.24
